In patent EP4501112A1, “PLANT DEFENSE ELICITORS” (Globachem NV, priority 2023, dated 2025):

Columns and labels:
[1] = test system: English grain aphid (Sitobion avenae); assay: Survival of S. avenae on wheat after foliar spray (greenhouse pots); type: in vivo; details: 0.65 g pelargonic acid in 500 mL water
Method: DISEASE/PEST: English grain aphid (Sitobion avenae) CROP: WHEAT (Triticum aestivum) APPLICATION: FOLIAR PROTOCOL: T. aestivum plants were grown in pots (8x8 cm) in the greenhouse until reaching a height of 10 cm. Each pot contained 50 seeds. Each treatment consisted of 3 replicates. Plants were sprayed with a handheld sprayer containing 0.65 g of pelargonic acid in 500 mL of water for the 3 replicates. Control plants were sprayed with water. Spraying solutions (as noted in the Table 1) were prepared freshly before treatment. S. avenae (N=10) were added 1 hour after spraying. Insects were counted, 1, 4, 6, 12 and 14 days after the treatment applied. Table 1. Efficacy assessment survival of S. avenae on T. aestivum (number of aphids)

S. exigua = assay: Direct feeding of pelargonic acid (comparative example 1c); type: in vivo; details: Table 3 is an image
Text: Example 1c. Direct effect pelargonic acid (Comparative example) [table]

[2] = test system: Root knot nematode (Meloidogyne graminicola); assay: Root knot nematode gall development on wheat roots after treatment; type: in vivo; details: foliar spraying, stock solution 200 x diluted; 400 J2 per plant 24 hours after treatment; 14 days after inoculation
Method: DISEASE/PEST: Root knot nematode (Meloidogyne graminicola) CROP: Triticum aestivum APPLICATION: Foliar application EXPERIMENT/TRIAL PROTOCOL: After seed germination, wheat plants were grown individually for 2 weeks in a PVC tube (18 cm height, 3 cm diameter) filled with a substrate of sand and a water-absorbing polymer (DCM Aquaperla). Plants were grown at 24 °C and supplied with Hoagland solution and water 3 times per week. They were treated after 2 weeks. Twenty-four hours after treatment they were inoculated with 400 nematode juveniles (second stage; J2) per plant. 8 individual plants were analyzed per treatment. Evaluation of nematode infection was done 14 days after inoculation. Development of galls on the roots was microscopically observed and counted. No females were observed yet at this early time point, in any of the treatments. The number of galls was reduced in the […], pelargonic acid ([…] decanoic acid (pm4) treated plants. Azelaic acid (pm3) had no effect on gall numbers in the used concentration. FORMULATION USED: […] PM1 is already formulated.

Maize (cultivar Mofox) = assay: Abiotic stress (flooding, drought, daily watered) growth trial on maize, foliar treatment
[3] = daily watered (normal) conditions, foliar 65 g/ha
[4] = daily watered (normal) conditions, foliar 325 g/ha
[5] = daily watered (normal) conditions, foliar 650 g/ha
[6] = daily watered (normal) conditions, foliar 1300 g/ha
[7] = drought conditions, foliar 65 g/ha
[8] = drought conditions, foliar 325 g/ha
[9] = drought conditions, foliar 650 g/ha
[10] = drought conditions, foliar 1300 g/ha
[11] = flooding conditions, foliar 65 g/ha
[12] = flooding conditions, foliar 325 g/ha
[13] = flooding conditions, foliar 650 g/ha
[14] = flooding conditions, foliar 1300 g/ha

With `CCCCCCCCC(=O)O` [Pelargonic acid, pelargonic acid] the “survival of S. avenae on T. aestivum (number of aphids)” value (“survival of S. avenae on T. aestivum” below) ([1]; 4 DAT) was 4.2, the “survival of S. avenae on T. aestivum” value ([1]; 6 DAT) was 7.4 and the “survival of S. avenae on T. aestivum” value ([1]; 10 aphids added 1 hour after spraying, 1 DAT) was 3. The “survival of S. avenae on T. aestivum” value ([1]; 12 DAT) was 9.6, the “survival of S. avenae on T. aestivum” value ([1]; 14 DAT) was 15 and the “direct control of S. exigua” value (S. exigua) was “no direct control”. The number of galls [2] was “reduced”, the “% total growth to control” value (Maize (cultivar Mofox); [3]) was 71% and the “ASSESSMENT total growth after 15 days (cm)” value (from here on “ASSESSMENT total growth”) (Maize (cultivar Mofox); [3]) was 18.4 cm. For the same molecule, the “% total growth to control” value (Maize (cultivar Mofox); [4]) was 87%, the “ASSESSMENT total growth” value (Maize (cultivar Mofox); [4]) was 22.5 cm and the “% total growth to control” value (Maize (cultivar Mofox); [5]) was 95%. The “ASSESSMENT total growth” value (Maize (cultivar Mofox); [5]) was 24.8 cm, the “% total growth to control” value (Maize (cultivar Mofox); [6]) was 78% and the “ASSESSMENT total growth” value (Maize (cultivar Mofox); [6]) was 20.3 cm. The “% total growth to control” value (Maize (cultivar Mofox); [7]) was 87%, the “ASSESSMENT total growth” value (Maize (cultivar Mofox); [7]) was 17.4 cm and the “% total growth to control” value (Maize (cultivar Mofox); [8]) was 87%. For the same molecule, the “ASSESSMENT total growth” value (Maize (cultivar Mofox); [8]) was 17.6 cm, the “% total growth to control” value (Maize (cultivar Mofox); [9]) was 112% and the “ASSESSMENT total growth” value (Maize (cultivar Mofox); [9]) was 22.2 cm. For the same molecule, the “% total growth to control” value (Maize (cultivar Mofox); [10]) was 91%, the “ASSESSMENT total growth” value (Maize (cultivar Mofox); [10]) was 18.2 cm and the “% total growth to control” value (Maize (cultivar Mofox); [11]) was 104%. For the same molecule, the “ASSESSMENT total growth” value (Maize (cultivar Mofox); [11]) was 26.3 cm, the “% total growth to control” value (Maize (cultivar Mofox); [12]) was 104% and the “ASSESSMENT total growth” value (Maize (cultivar Mofox); [12]) was 26.1 cm. For the same molecule, the “% total growth to control” value (Maize (cultivar Mofox); [13]) was 90%, the “ASSESSMENT total growth” value (Maize (cultivar Mofox); [13]) was 22.6 cm and the “% total growth to control” value (Maize (cultivar Mofox); [14]) was 82%. The “ASSESSMENT total growth” value (Maize (cultivar Mofox); [14]) was 20.7 cm.
